# In ChEMBL document CHEMBL4402517, “Rational modification of Mannich base-type derivatives as novel antichagasic compounds: Synthesis, in vitro and in vivo evaluation” (Bioorg Med Chem, 2019):
# Assay: Toxicity in BALB/c mouse infected with Trypanosoma cruzi MHOM/Pe/2011/Arequipa;DTU 5 bloodstream trypomastigote assessed as change in serum creatine kinase muscle to brain ratio level in acute phase at 20 mg/kg/day, po administered for 5 consecutive days starting from day 8 post infection and measured on day 100 post infection by biochemical analysis relative to control
# Format: organism-based
# Details: in vivo
structure (smiles),measurement,value
O=C(Cn1ccnc1[N+](=O)[O-])NCc1ccccc1 [BENZNIDAZOLE],Activity,> 10%
